Columns and labels:
[1] = Docetaxel PK samples (end of infusion), arm 2; type: in vivo, human; details: arm 2, IV docetaxel with MK-2206
Description: For the Q3W schedule, samples were taken in cycle 1 on days 1 to 3 as per the QOD schedule, then on days 5, 7, 15, and in cycle 2 on day 1. Blood samples were collected predose and just before the end of the infusion for carboplatin, paclitaxel, and docetaxel for archival and possible PK analysis. Another sample was taken 30 minutes into the infusion of paclitaxel. These samples were archived for possible future analysis to investigate if any unexpected toxicities may have been as a result of a PK interaction.

[2] = cited from earlier work

mean end-of-infusion concentration [1]: 3.01 µg/mL
SMILES: CC(=O)O[C@@]12CO[C@@H]1C[C@H](O)[C@@]1(C)C(=O)[C@H](O)C3=C(C)[C@@H](OC(=O)[C@H](O)[C@@H](NC(=O)OC(C)(C)C)c4ccccc4)C[C@@](O)([C@@H](OC(=O)c4ccccc4)[C@H]21)C3(C)C [docetaxel]
mean end-of-infusion concentration, range of mean values in the literature [2]: 1.68 to 4.06 µg/mL

— publication PMC3884022 (Journal of Hematology & Oncology, 2014)
